BindingDB's records for doi:10.1021/jm801063n (University of Auckland, 2009)

Experiment: Inhibition of recombinant perforin-mediated lysis of human Jurkat T cells by 51Cr release assay

SMILES | IC50
COc1ccc2oc(/C=C3\OC(=O)c4c3cc(C)[nH]c4=S)cc2c1 [(Z)-1-((5-Methoxybenzofuran-2-yl)methylene)-6-methyl-4-thioxo-4,5-dihydrofuro[3,4-c]pyridin-3(1H)-one] | 2.4 µM
Cc1cc2c(c(=O)[nH]1)C(=O)O/C2=C\c1ccc(-c2ccccc2)s1 [(Z)-6-Methyl-1-((5-phenylthiophen-2-yl)methylene)furo[3,4-c]pyridine-3,4(1H,5H)-dione] | 5 µM
Cc1cc2c(c(=S)[nH]1)C(=O)O/C2=C\c1ccc(-c2ccccc2)s1 [(Z)-6-Methyl-1-((5-phenylthiophen-2-yl)methylene)-4-thioxo-4,5-dihydrofuro[3,4-c]pyridin-3(1H)-one] | 3.4 µM
Cc1cc2c(c(=S)[nH]1)C(=O)O/C2=C\c1ncc[nH]1 [(Z)-1-((1H-Imidazol-2-yl)methylene)-6-methyl-4-thioxo-4,5-dihydrofuro[3,4-c]pyridin-3(1H)-one] | > 20 µM
Cc1cc2c(c(=O)[nH]1)C(=O)O/C2=C\c1cc2ccccc2s1 [(Z)-1-(Benzo[b]thiophen-2-ylmethylene)-6-methylfuro[3,4-c]pyridine-3,4(1H,5H)-dione] | 4.6 µM
Cc1cc2c(c(=O)[nH]1)C(=O)O/C2=C\c1csc2ccccc12 [(Z)-1-(Benzo[b]thiophen-3-ylmethylene)-6-methylfuro[3,4-c]pyridine-3,4(1H,5H)-dione] | 8.5 µM
COc1cccc2oc(/C=C3\OC(=O)c4c3cc(C)[nH]c4=S)cc12 [(Z)-1-((4-Methoxybenzofuran-2-yl)methylene)-6-methyl-4-thioxo-4,5-dihydrofuro[3,4-c]pyridin-3(1H)-one] | 6.7 µM
Cc1cc2c(c(=S)[nH]1)C(=O)O/C2=C\c1cc2ccccc2[nH]1 [(Z)-1-((1H-Indol-2-yl)methylene)-6-methyl-4-thioxo-4,5-dihydrofuro[3,4-c]pyridin-3(1H)-one] | 1.3 µM
Cc1cc2c(c(=S)[nH]1)C(=O)O/C2=C\c1ccc(F)cc1 [(Z)-1-(4-Fluorobenzylidene)-6-methyl-4-thioxo-4,5-dihydrofuro[3,4-c]pyridin-3(1H)-one] | > 20 µM
COc1ccc2cc(/C=C3\OC(=O)c4c3cc(C)[nH]c4=S)[nH]c2c1 [(Z)-1-((6-Methoxy-1H-indol-2-yl)methylene)-6-methyl-4-thioxo-4,5-dihydrofuro[3,4-c]pyridin-3(1H)-one] | 3.1 µM
COc1ccc2[nH]c(/C=C3\OC(=O)c4c3cc(C)[nH]c4=S)cc2c1 [(Z)-1-((5-Methoxy-1H-indol-2-yl)methylene)-6-methyl-4-thioxo-4,5-dihydrofuro[3,4-c]pyridin-3(1H)-one] | 4.6 µM

Continued, values first:

IC50 | SMILES
> 20 µM | Cc1cc2c(c(=S)[nH]1)C(=O)O/C2=C\c1cccn1C [(Z)-6-Methyl-1-((1-methyl-1H-pyrrol-2-yl)methylene)-4-thioxo-a4,5-dihydrofuro[3,4-c]pyridin-3(1H)-one]
> 20 µM | Cc1cc2c(c(=S)[nH]1)C(=O)O/C2=C\c1ccccc1 [(Z)-1-Benzylidene-6-methyl-4-thioxo-4,5-dihydrofuro[3,4-c]pyridin-3(1H)-one]
> 20 µM | Cc1cc2c(c(=S)[nH]1)C(=O)O/C2=C\c1cc2ccccc2n1C [(Z)-6-Methyl-1-((1-methyl-1H-indol-2-yl)methylene)-4-thioxo-4,5-dihydrofuro[3,4-c]pyridin-3(1H)-one]
> 20 µM | Cc1cc2c(c(=S)[nH]1)C(=O)O/C2=C\c1ccoc1 [(Z)-1-(Furan-3-ylmethylene)-6-methyl-4-thioxo-4,5-dihydrofuro[3,4-c]pyridin-3(1H)-one]
7.2 µM | Cc1cc2c(c(=S)[nH]1)C(=O)O/C2=C\c1ccc(C)s1 [(Z)-6-Methyl-1-((5-methylthiophen-2-yl)methylene)-4-thioxo-4,5-dihydrofuro[3,4-c]pyridin-3(1H)-one]
> 20 µM | Cc1cc2c(c(=S)[nH]1)C(=O)O/C2=C\c1ccsc1 [(Z)-6-Methyl-1-(thiophen-3-ylmethylene)-4-thioxo-4,5-dihydrofuro[3,4-c]pyridin-3(1H)-one]
